We go through three molecules from patent US8134006B2, “Dialkylphenyl compounds having β2 adrenergic receptor agonist and muscarinic receptor antagonist activity” (Theravance, Inc., priority 2006, dated 2012).

Each structure is given as a SMILES string.

In test [1] the test system is acetylcholine or histamine bronchoconstriction. Nature of the test: Plethysmograph guinea pig assay for bronchoprotective efficacy and duration. The note with it: doses ranging from 3 μg/mL to 300 μg/mL, inhalation.
Procedure: In this assay, the bronchoprotective efficacy and duration of test compounds was determined using a guinea pig assay.
Groups of 6 male guinea pigs (Duncan-Hartley (HsdPoc:DH) Harlan, Madison, Wis.) weighing between 250 and 350 g were individually identified by cage cards. Throughout the study, animals were allowed access to food and water ad libitum. Test compounds were administered via inhalation over 10 minutes in a whole-body exposure dosing chamber (R&S Molds, San Carlos, Calif.). The dosing chambers were arranged so that an aerosol was simultaneously delivered to 6 individual chambers from a central manifold. Guinea pigs were exposed to an aerosol of a test compound or vehicle (WFI). […] The gas flow through the nebulizer at this operating pressure was approximately 3 L per minute. […] This value was measured gravimetrically by comparing pre- and post-nebulization weights of the filled nebulizer. […]
The pulmonary evaluation was initiated after determining that baseline values were within the range of 0.3 to 0.9 mL per cm H2O for compliance and within the range of 0.1 to 0.199 cm H2O per mL per second for resistance. […] The changes in volume over time that occurred within the plethysmograph with each breath were measured via a Buxco pressure transducer. By integrating this signal over time, a measurement of flow was calculated for each breth. […]
Test [2] has as its system histamine-induced bronchoconstriction. The test can be described thus: Einthoven assay, bronchoprotective efficacy against histamine. The conditions noted are these: 1.5 hours post-dose, inhalation.
Procedure: (§1) In this assay, the bronchoprotective efficacy and duration of test compounds were determined using guinea pigs. […] In this assay, changes in ventilation pressure serve as a surrogate measure of airway resistance. Following pre-treatment with a test compound, muscarinic antagonist potency was determined using bronchoconstrictor dose-response curves to intravenous methacholine in the presence of propranolol. Similarly, β2 agonist bronchoprotective potency was determined using histamine. Combined bronchoprotective potency was determined using methacholine in the absence of propranolol.
(§2) The assay was conducted using male Duncan-Hartley guinea pigs (Harlan, Indianapolis, Ind.), weighing between 250 and 400 g. A test compound or vehicle (i.e., sterile water) was dosed by inhalation (IH) over a 10 minute time period in a whole body exposure dosing chamber (R+S Molds, San Carlos, Calif.) using 5 mL of dosing solution. […] Pulmonary function was evaluated at various time points after inhalation dosing.
(§3) The trachea was then dissected free and cannulated with a 14G needle (#NE-014, Small Parts, Miami Lakes, Fla.). […] Body temperature was maintained at 37° C. using a heating pad. […] The changes in VP were recorded on a Biopac Windows data collection interface. […] Changes in VP were recorded using the Acknowledge Data Collection Software (Santa Barbara, Calif.). […]
(§4) Change in VP was measured in cm of water. […]
Test [3] addresses T1, human β2 adrenergic receptor (Homo sapiens, UniProt P07550).
T1 construct: a cell line expressing endogenous levels of the β2 adrenergic receptor; host or cells: BEAS-2B human lung epithelial cell line
Nature of the test: Whole-cell cAMP Flashplate assay with lung epithelial cell line (BEAS-2B) endogenously expressing β2 receptor. Type of test: cell-based. The conditions noted are these: BEAS-2B cells, compared with full β2 agonist isoproterenol (1.0). As to the method:
In this assay, the agonist potency and intrinsic activity of a test compound were determined using a cell line expressing endogenous levels of the β2 adrenergic receptor.
On the day of the assay, cells were rinsed with PBS, lifted by scraping with 5 mM EDTA in PBS, and counted. Cells were pelleted by centrifugation at 1,000 rpm and re-suspended in stimulation buffer pre-warmed to 37° C. at a final concentration of 600,000 cells/mL. Cells were used at a final concentration of 100,000 to 120,000 cells/well in this assay. […] Plates were sealed, incubated over night at 4° C. and counted the next morning in a Topcount scintillation counter (Packard BioScience Co., Meriden, Conn.). […] Data were analyzed by nonlinear regression analysis with the GraphPad Prism Software package (GraphPad Software, Inc., San Diego, Calif.) using the 4-parameter model for sigmoidal dose-response.

In test [4] the test system is methacholine-induced bronchoconstriction. The test can be described thus: Einthoven assay, bronchoprotective efficacy against methacholine. The note with it: 1.5 hours post-dose, inhalation.
Procedure: as §1, §2, §3, §4
In test [5] the target is cM5 receptor (UniProt Q5IS53). Nature of the test: Blockade of agonist-mediated calcium release via FLIPR. The class given is cell-based. The conditions noted are these: CHO cells expressing cM5, read-out: Kobs. The procedure: In this functional assay, the functional potency of a test compound as an antagonist of hM1, hM3 and […] receptors was determined by measuring the ability of the test compound to inhibit agonist-mediated increases in intracellular calcium.
CHO cells stably expressing the receptors were seeded into 96-well FLIPR plates the night before the assay was done. Seeded cells were washed twice with FLIPR buffer (10 mM HEPES, pH 7.4, 2 mM calcium chloride, 2.5 mM probenecid in Hank's Buffered Salt Solution (HBSS) without calcium and magnesium) using Cellwash (MTX Labsystems, Inc.) to remove growth media. After washing, each well contained 50 μL of FLIPR buffer. […]
The dose-dependent stimulation of intracellular Ca^2+ release for oxotremorine was determined so that the test compound could be measured against oxotremorine stimulation at an EC90 concentration. […]
The parameters used for the FLIPR were: exposure length of 0.4 seconds, laser strength of 0.5 watts, excitation wavelength of 488 nm, and emission wavelength of 550 nm. Baseline was determined by measuring the change in fluorescence for 10 seconds prior to addition of oxotremorine. Following oxotremorine stimulation, the FLIPR continuously measured the change of fluorescence every 0.5 to 1 second for 1.5 minutes to capture the maximum fluorescence change. […]

Test [6] concerns bronchoconstriction. Nature of the test: Einthoven assay, duration of bronchoprotection. The note with it: inhalation.
Procedure: as §1, §2, §3, §4

T1 sequence (P07550 whole entry): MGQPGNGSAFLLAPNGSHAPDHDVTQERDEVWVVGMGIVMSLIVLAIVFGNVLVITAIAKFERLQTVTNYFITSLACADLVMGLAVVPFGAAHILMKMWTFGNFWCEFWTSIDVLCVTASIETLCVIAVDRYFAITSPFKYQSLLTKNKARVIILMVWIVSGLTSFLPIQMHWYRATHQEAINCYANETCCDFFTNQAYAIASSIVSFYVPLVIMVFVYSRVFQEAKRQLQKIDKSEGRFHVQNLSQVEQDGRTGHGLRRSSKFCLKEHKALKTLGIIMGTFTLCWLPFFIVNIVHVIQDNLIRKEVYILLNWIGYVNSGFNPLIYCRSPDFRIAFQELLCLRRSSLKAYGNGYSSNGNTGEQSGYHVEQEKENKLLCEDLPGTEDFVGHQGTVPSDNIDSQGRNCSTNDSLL
cM5 receptor, sequence (Q5IS53 whole entry): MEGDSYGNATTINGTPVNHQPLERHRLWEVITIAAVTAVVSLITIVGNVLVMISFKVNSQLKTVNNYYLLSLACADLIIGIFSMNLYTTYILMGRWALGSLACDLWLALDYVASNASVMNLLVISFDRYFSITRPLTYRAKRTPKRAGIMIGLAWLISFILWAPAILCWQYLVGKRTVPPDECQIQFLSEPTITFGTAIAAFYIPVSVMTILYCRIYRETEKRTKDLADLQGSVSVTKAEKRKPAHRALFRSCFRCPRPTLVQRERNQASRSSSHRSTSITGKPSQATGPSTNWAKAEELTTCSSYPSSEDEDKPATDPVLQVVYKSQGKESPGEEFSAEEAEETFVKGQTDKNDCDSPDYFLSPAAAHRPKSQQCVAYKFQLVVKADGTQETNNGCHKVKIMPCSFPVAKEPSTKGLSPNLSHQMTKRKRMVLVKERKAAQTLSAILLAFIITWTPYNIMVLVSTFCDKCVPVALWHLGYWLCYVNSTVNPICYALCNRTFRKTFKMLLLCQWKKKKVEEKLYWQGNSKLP

For the molecule `O=CNc1cc([C@@H](O)CNCc2ccc(NC(=O)CCN3CCC(OC(=O)Nc4ccccc4-c4ccccc4)CC3)cc2)ccc1O` [compound 50], in test [1], the “bronchoprotection at 24 hours post-dose” value is recorded as “no significant bronchoprotection”.
Regarding `Cc1cc(NC(=O)CCN2CCC(OC(=O)Nc3ccccc3-c3ccccc3)CC2)c(C)cc1CNC[C@H](O)c1ccc(O)c(NC=O)c1` [compound IIa, biphenyl-2-ylcarbamic acid 1-[2-(4-{[(R)-2-(3-formylamino-4-hydroxyphenyl)-2-hydroxyethylamino]methyl}-2,5-dimethylphenylcarbamoyl)ethyl]piperidin-4-yl ester], the ID50 result in test [2] and in test [4] was “less than 50 μg/mL” in each case. For the same molecule, the intrinsic activity entry in test [3] is “greater than 0.3”. For the same molecule, in test [5], the Ki is under 10 nM. The “duration of significant bronchoprotection” value in test [6] (single sub-maximal dose 100 μg/mL) is listed as “up to 72 hours”.
Consider `C[N+]1(C)[C@@H]2C[C@@H](OC(=O)C(O)(c3cccs3)c3cccs3)C[C@H]1[C@@H]1O[C@@H]12` [tiotropium, reference compound], for which, in test [6] (10 μg/mL), the “duration of significant bronchoprotection” value was “greater than 72 hours”.
